In data set [1] the test system is AMPK. Description: Immunoblot of AMPK activation in HCT116 cells treated with Spautin-1. It counts as cell-based. The note with it: indicated concentration of Spautin-1, immunoblot (FIG. 1I). On the procedure:
FIG. 1A is a picture of an immunoblot showing the effect of USP10 knockdown on AMPK activation. HCT116 cells were infected with lentivirus encoding the indicated shRNAs. Cell lysates were immunoblotted as indicated. FIGS. 1B and 1C are a picture (FIG. 1B) and a graph (FIG. 1C) showing Oil-Red-O staining of HCT116 cells with or without shRNA knockdown of USP10. Control or USP10 knockdown HCT116 cells were incubated in medium supplemented with 200 μM sodium oleate overnight (20 hours) and fixed with formalin. The intracellular lipid droplet abundance was assessed by Oil-Red-O staining. The results represent the means (±SEM) of three independent experiments. **, p<0.01. FIG. 1D is a graph plotting lactate concentration in HCT116 cells. Lactate production was measured after incubation of control and USP10 knockdown HCT116 cells in medium for 48 hours. […] FIG. 1E is a graph plotting relative expression of aldoa, ldha, and pdkl mRNA in control or USP10 knockdown HCT116 cells, as determined by qPCR. Transcript levels were determined relative to actin mRNA levels, and normalized relative to control cells. […] The intracellular lipid droplet abundance was assessed by Oil-Red-O staining. […] The relative expression of aldoa, ldha, and pdkl mRNA in the indicated cells was determined by qPCR. Transcript levels were determined relative to actin mRNA levels, and normalized relative to control cells. […]

For data set [2], the system named is cancer cells. The experiment in a line: Survival of cancer cells with and without USP10 after treatment with everolimus. It counts as cell-based. The source says: FIGS. 12A and 12B are pictures of immunoblots from co-immuno-precipitation assays showing that USP10 interacts with mTOR. […] FIG. 12D is a graph plotting survival of cancer cells with and without USP10, after treatment with the mTOR inhibitor, everolimus. […] FIG. 12E is a graph plotting survival of cancer cells with and without USP10 knockdown by shRNA, after treatment with everolimus.

Data set [3] deals with Ub-AMC. Description: In vitro deubiquitinase enzymatic assay with Ub-AMC. It counts as biochemical. The note with it: purified USP10 incubated with or without active AMPK (FIG. 9A). On the procedure:
In vitro deubiquitinase enzymatic assay—In vitro enzymatic assays using ubiquitin-7-amido-4-methylcoumarin (Ub-AMC; U-550; Boston Biochem) were performed in 50-100 μl reaction buffer (20 mM HEPES-KOH [pH 7.8], 20 mM NaCl, 0.1 mg/ml ovalbumin [A7641; Sigma], 0.5 mM EDTA, and 10 mM DTT) at 25° C. Fluorescence was monitored in an INFINITE® M1000 PRO Fluorometer (TECAN).

Data set [4] deals with AMPK. Description: AMPK in vitro kinase assay (32P incorporation into peptides). It is filed as biochemical. On the procedure: AMPK in vitro kinase assay—Purified AMPK (Upstate Biotechnology) was incubated with various substrates (0.5 μg) in kinase reaction buffer (15 mM HEPES, pH 7.0, 1 mm dithiothreitol, 18.75 mM MgCl2, 1.25 mM EGTA, and 125 μM ATP and 12.5 μCi of radiolabeled ATP, with or without 150 μM AMP, at 30° C. for 30 minutes. The product was separated by SDS-PAGE and subjected to autoradiography. Phosphorylation was detected by incorporation of radiolabeled [γ-32P] ATP. To study the stoichiometry of phosphorylation of the USP10 S76 [TLPRTPSYSISST (SEQ ID NO:19), synthesized by Peptide 2.0] and SAMS (Abcam) peptides by AMPK, the peptides (20 μM) were individually incubated in 100 μl of reaction buffer at 30° C. Aliquots (10 μl) were removed at various times to measure ^32P incorporation.

For data set [5], the system named is ubiquitinated AMPKα. Description: In vitro deubiquitination of AMPKα. It is filed as biochemical. The note with it: bacterially-expressed USP10, ubiquitinated AMPKα substrate (FIGS. 3H and 4C). From the text: In vitro deubiquitination of AMPKα—To prepare ubiquitinated AMPKα as the substrate for the in vitro deubiquitination assay, HCT116 cells were transfected with both HA-Ub and FLAG-AMPKα. […] Following extensive washing with the FLAG-lysis buffer, proteins were eluted with FLAG-peptides (Sigma). The recombinant His-USP10 and USP10CA polypeptides were expressed in BL21 cells and purified with the His-tag purification column (Novagen). For the in vitro deubiquitination assay, ubiquitinated AMPK protein was incubated with recombinant USP10 in a deubiquitination buffer (50 mM Tris-HCl pH 8.0, 50 mM NaCl, 1 mM EDTA, 10 mM DTT, 5% glycerol) overnight at 16° C.

The text below walks through data of patent US20190030139A1, “USP10 MODULATION OF AMPK AND MTOR” (MAYO FOUNDATION FOR MEDICAL EDUCATION AND RESEARCH, priority 2016, published 2019).

On to `Fc1ccc(CNc2ncnc3ccc(F)cc23)cc1` [Spautin-1], for which the AMPK activation result in data set [1] was “largely inhibited”.

As for `CO[C@H]1C[C@@H]2CC[C@@H](C)[C@@](O)(O2)C(=O)C(=O)N2CCCC[C@H]2C(=O)O[C@H]([C@H](C)C[C@@H]2CC[C@@H](OCCO)[C@H](OC)C2)CC(=O)[C@H](C)/C=C(\C)[C@@H](O)[C@@H](OC)C(=O)[C@H](C)C[C@H](C)/C=C/C=C/C=C/1C` [everolimus], the “survival of cancer cells” value is “greater effect on survival of USP10 knockdown cells than on cells treated with a control shRNA” in data set [2] (USP10 shRNA knockdown vs control shRNA (FIG. 12E)) and “decreased in the absence of USP10” in data set [2] (cells with vs without USP10 (FIG. 12D)).

For the molecule “S76A mutant: USP10 with S76 mutated to Ala”, in data set [3], the “deubiquitinase activity toward Ub-AMC” value is “remained low”.

Consider “USP10 peptide: synthesized USP10 S76 peptide TLPRTPSYSISST (SEQ ID NO:19) (listed as Homo sapiens)”, for which, in data set [4] (after 30 minutes of incubation, calculated from FIG. 8D data (FIG. 8E)), the “maximal stoichiometry of phosphorylation by AMPK” value is reported as 0.46±0.04 mol/mol. Also, the “initial rate of phosphorylation by AMPK” value in data set [4] (peptide 20 μM, 30° C., mean ±SEM of three experiments (FIG. 8D)) was 155±36 pmol/min/reaction mix.

As for “WT USP10: recombinant wild type USP10 deubiquitinase (SEQ ID NO:2), bacterially expressed”, the “deubiquitination of AMPKα in vitro” value in data set [5] is “removed ubiquitin chain from AMPKα”.

For the molecule “phosphorylated USP10: USP10 phosphorylated using active AMPK in vitro”, the “deubiquitinase activity toward Ub-AMC” value in data set [3] is reported as “much higher activity toward Ub-AMC”.
